Assay results: article PMC11133327, “Discovery of potent antimycobacterial agents targeting lumazine synthase (RibH) of Mycobacterium tuberculosis” (Scientific Reports, 2024)

Experiments:
Assay type in all cases: binding
lumazine synthase (RibH) [1] = target: T1, lumazine synthase (RibH) (Mycobacterium tuberculosis, UniProt P9WHE9); test: […]; also riboflavin displacement ([…] at […])
lumazine synthase (RibH) [2] = target: T1, lumazine synthase (RibH); test: […]; also riboflavin displacement ([…] at […]); remark: listed apart in the source
lumazine synthase (RibH) [3] = target: T1, lumazine synthase (RibH); test: […]; also riboflavin displacement ([…] at […]); remark: listed apart in the source
lumazine synthase (RibH) [4] = target: T1, lumazine synthase (RibH); test: biochemical

T1 sequence (P9WHE9 whole entry): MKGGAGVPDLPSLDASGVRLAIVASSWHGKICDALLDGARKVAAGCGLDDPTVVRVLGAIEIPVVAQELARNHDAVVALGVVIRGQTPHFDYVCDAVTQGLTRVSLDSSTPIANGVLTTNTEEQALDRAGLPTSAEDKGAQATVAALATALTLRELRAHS

O=C1NC(=Nc2ccccc2)SC1=Cc1ccc([N+](=O)[O-])o1 [A10, 5-((5-nitrofuran-2-yl)methylene)-2-(phenylimino)thiazolidin-4-one]
Kd (lumazine synthase (RibH) [1]): 69 nM

O=C1NC(=Nc2ccc(Cl)cc2)SC1=Cc1ccc([N+](=O)[O-])o1 [A39, 2-((4-chlorophenyl)imino)-5-((5-nitrofuran-2-yl)methylene)thiazolidin-4-one]
Kd (lumazine synthase (RibH) [2]): 2.3 nM

Cc1ccc(N=C2NC(=O)C(=Cc3ccc([N+](=O)[O-])o3)S2)cc1 [A52, 5-((5-nitrofuran-2-yl)methylene)-2-(p-tolylimino)thiazolidin-4-one]
Kd (lumazine synthase (RibH) [3]): 48 nM

Cc1cc2nc3c(=O)[nH]c(=O)nc-3n(C[C@H](O)[C@H](O)[C@H](O)CO)c2cc1C [riboflavin]
Kd (lumazine synthase (RibH) [4]): 86 nM
